From PubChem BioAssay AID180 (DTP/NCI, 2004)

Test system: BDF1 mice, Adenocarcinoma 755 s.c., tumor weight T/C
Test: NCI In Vivo Anticancer Drug Screen. Data for tumor model Adenocarcinoma 755 (subcutaneous) in B6D2F1 (BDF1) mice
Conditions: endpoint: mean tumor weight, higher = larger tumour
Method in brief: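 Readout: T/C, i.e. treated-group measurement over vehicle-control measurement. Endpoint is survival or tumor size in tumor-bearing mice given compound.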

O=C1C=C(N2CC2)C(=O)C(N2CC2)=C1N1CC1 was tested, and the T/C (dose: 0.02 mg/kg/injection, schedule: Q01DX011 (ip), vehicle: saline) was 79 % of control, the T/C (dose: 0.05 mg/kg/injection, schedule: Q01DX011 (ip), vehicle: saline) was 61 % of control and the T/C (dose: 0.1 mg/kg/injection, schedule: Q01DX011 (ip), vehicle: saline) was 19 % of control. The T/C (dose: 3.0 micrograms/kg/injection, schedule: Q01DX011 (ip), vehicle: carboxymethylcellulose (CMC)) was 42 % of control, the T/C (dose: 5.0 micrograms/kg/injection, schedule: Q01DX011 (ip), vehicle: carboxymethylcellulose (CMC)) was 25 % of control and the T/C (dose: 5.0 micrograms/kg/injection, schedule: Q01DX011 (ip), vehicle: saline) was 65 % of control. For the same compound, the T/C (dose: 10.0 micrograms/kg/injection, schedule: Q01DX011 (ip), vehicle: carboxymethylcellulose (CMC)) was 39 % of control, the T/C (dose: 10.0 micrograms/kg/injection, schedule: Q01DX011 (ip), vehicle: saline) was 54 % of control and the T/C (dose: 20.0 micrograms/kg/injection, schedule: Q01DX011 (ip), vehicle: carboxymethylcellulose (CMC)) was 8 % of control. The T/C (dose: 20.0 micrograms/kg/injection, schedule: Q01DX011 (ip), vehicle: saline) was 59 % of control, the T/C (dose: 25.0 micrograms/kg/injection, schedule: Q01DX011 (ip), vehicle: carboxymethylcellulose (CMC)) was 70 % of control and the T/C (dose: 31.0 micrograms/kg/injection, schedule: Q01DX011 (ip), vehicle: carboxymethylcellulose (CMC)) was 100 % of control. The T/C (dose: 40.0 micrograms/kg/injection, schedule: Q01DX011 (ip), vehicle: saline) was 33 % of control, the T/C (dose: 62.0 micrograms/kg/injection, schedule: Q01DX011 (ip), vehicle: carboxymethylcellulose (CMC)) was 69 % of control and the T/C (dose: 125.0 micrograms/kg/injection, schedule: Q01DX011 (ip), vehicle: carboxymethylcellulose (CMC)) was 63 % of control.

In the case of CS(=O)(=O)OCCC(=O)NCCCCCCNC(=O)CCOS(C)(=O)=O, the T/C (dose: 57.0 mg/kg/injection, schedule: Q01DX011 (ip), vehicle: methylcellulose (MC)) is reported as 117 % of control, the T/C (dose: 113.0 mg/kg/injection, schedule: Q01DX011 (ip), vehicle: methylcellulose (MC)) is reported as 110 % of control and the T/C (dose: 225.0 mg/kg/injection, schedule: Q01DX011 (ip), vehicle: methylcellulose (MC)) is reported as 45 % of control.

O=C(O)CCC(=O)NO was tested, and the T/C (dose: 50.0 mg/kg/injection, schedule: Q01DX011 (ip), vehicle: carboxymethylcellulose (CMC)) was 96 % of control, the T/C (dose: 100.0 mg/kg/injection, schedule: Q01DX011 (ip), vehicle: carboxymethylcellulose (CMC)) was 98 % of control and the T/C (dose: 200.0 mg/kg/injection, schedule: Q01DX011 (ip), vehicle: carboxymethylcellulose (CMC)) was 84 % of control.

For COc1cc2c3c(c4ccc(OC)c(OC)c4c2cc1OC)CN1CCC[C@@H]1C3, the T/C (dose: 5.0 mg/kg/injection, schedule: Q02DX006 (ip), vehicle: water) was 65 % of control, the T/C (dose: 10.0 mg/kg/injection, schedule: Q02DX006 (ip), vehicle: water) was 52 % of control and the T/C (dose: 15.0 mg/kg/injection, schedule: Q02DX006 (ip), vehicle: water) was 33 % of control. For the same compound, the T/C (dose: 20.0 mg/kg/injection, schedule: Q02DX006 (ip), vehicle: water) was 21 % of control.

O=CN(O)CC(=O)O was tested, and the T/C (dose: 62.5 mg/kg/injection, schedule: Q01DX011 (ip), vehicle: carboxymethylcellulose (CMC)) was 98 % of control, the T/C (dose: 125.0 mg/kg/injection, schedule: Q01DX011 (ip), vehicle: carboxymethylcellulose (CMC)) was 86 % of control and the T/C (dose: 250.0 mg/kg/injection, schedule: Q01DX011 (ip), vehicle: carboxymethylcellulose (CMC)) was 85 % of control.

Nc1nc(=S)c2ncn(C3OC(COC(=O)c4ccccc4)C(OC(=O)c4ccccc4)C3OC(=O)c3ccccc3)c2[nH]1 (stereo unspecified) was tested, and the T/C (dose: 12.5 mg/kg/injection, schedule: Q01DX011 (ip), vehicle: methylcellulose (MC)) was 52 % of control, the T/C (dose: 25.0 mg/kg/injection, schedule: Q01DX011 (ip), vehicle: methylcellulose (MC)) was 49 % of control and the T/C (dose: 50.0 mg/kg/injection, schedule: Q01DX011 (ip), vehicle: methylcellulose (MC)) was 7 % of control. For the same compound, the T/C (dose: 100.0 mg/kg/injection, schedule: Q01DX011 (ip), vehicle: methylcellulose (MC)) was 3 % of control.

In the case of CS(=O)(=O)OCCC(=O)Nc1ccc(NC(=O)CCOS(C)(=O)=O)cc1, the T/C (dose: 46.0 mg/kg/injection, schedule: Q01DX011 (ip), vehicle: methylcellulose (MC)) is reported as 117 % of control, the T/C (dose: 91.0 mg/kg/injection, schedule: Q01DX011 (ip), vehicle: methylcellulose (MC)) is reported as 111 % of control and the T/C (dose: 183.0 mg/kg/injection, schedule: Q01DX011 (ip), vehicle: methylcellulose (MC)) is reported as 85 % of control. For the same compound, the T/C (dose: 375.0 mg/kg/injection, schedule: Q01DX011 (ip), vehicle: methylcellulose (MC)) was 117 % of control.
